*1 amine or outer side, *2 acyl side, *3 side chain or, on linkers, in order; H or OH if unused. Where a SMILES comes first, the peptide text is derived from it. Bridges are numbered along the chain shown (N, C = ends). Side-chain parts run from the residue outwards. [ ]: non-standard residue; d: D form. The star is where a group is joined. X4 = O=C(CNC(=O)[C@@H](O)[C@H](N[*:1])C(=O)[*:2])OCc1ccccc1; Phe(3R-OH) = O=C([C@@H](N[*:1])[C@H](O[*:3])c1ccccc1)[*:2]; X8 = O=C(NCCCN1CCOCC1)[C@@H](O)[C@H](N[*:1])C(=O)[*:2]; X7 = O=C(NCc1ccccc1)[C@@H](O)[C@H](N[*:1])C(=O)[*:2]; X6 = NC(=O)CNC(=O)[C@@H](O)[C@H](N[*:1])C(=O)[*:2]; X3 = O=C([C@@H](N[*:1])[C@H](O)C(=O)[*:3])[*:2]; X5 = NCCNC(=O)[C@@H](O)[C@H](N[*:1])C(=O)[*:2]; Leu(3R-OH) = CC(C)[C@@H](O)[C@H](N)C(=O)O; Ethylenediamine = C(CN[*:2])N[*:1]; aThr = C[C@H](O)[C@H](N)C(=O)O; Cbz = O=C(OCc1ccccc1)*
How the values were obtained:
[1] = Determination of the free fraction (fu) in plasma; format: in vitro ADME; settings: human
Protocol: (§1) Principle of the Determination of the Free Fraction Via Transil:
(§2) The method described here for determining the free fraction (fu) of a test substance is divided into 2 parts:
(§3) a) Determination of the Transil®/buffer distribution ratio (MAbuffer) by incubating the test substance in a Transil®-buffer (pH 7.4) dispersion and subsequently determining the concentration in the dispersion and in the buffer supernatant.
(§4) b) Determination of the Transil®/plasma distribution ratio (MAplasma) by incubating the test substance in a Transil®-plasma dispersion and subsequently determining the concentration in the dispersion and in the plasma.
(§5) The quotient of the two distribution ratios yields fu.
(§6) In the case of highly protein-bound substances, the plasma is usually diluted with isotonic phosphate buffer (pH 7.4) and then suspended with Transil®. The determination of fu′ (free fraction in diluted plasma) in this diluted protein solution takes place in analogy to the determination of fu. The free fraction in undiluted plasma is calculated from fu′ and the dilution factor.
(§7) Concerning this method, compare also: Schuhmacher, Joachim; Kohlsdorfer, Christian; Buehner, Klaus; Brandenburger, Tim; Kruk, Renate, “High-throughput determination of the free fraction of drugs strongly bound to plasma proteins.” Journal of Pharmaceutical Sciences 2004, 93, 816-830.
(§8) Determination of the Membrane Affinity of a Test Substance after Distribution Between Transil® and Buffer (MAbuffer):
(§9) All incubations are carried out in suitable glass vessels, e.g. glass vials, ground-socket test tubes. In general the total volume is 0.5-5 ml, and the Transil® volume 10-100 μl. In cases where the membrane affinities are expected to be high, the Transil® dispersion can be diluted up to 20-fold with phosphate buffer of pH 7.4, e.g. Dulbecco's PBS. Phosphate buffer of pH 7.4 is provided in the incubation vessels, and the Transil® is pipetted in, after thorough mixing. The test substance is pipetted in at a concentration of, for example, 200 ng/mL, n=6. The proportion of organic solvent should be <2%. The mixtures are incubated at room temperature for 30 min, e.g. on a mini-shaker at an angle of about 45°, at about 400 rpm. In order to determine the 100% value at least one aliquot of, for example, 100 μl, is removed and the remaining mixture is centrifuged at about 1800 g for about 10 min. At least 2 aliquots (e.g. 100 μl) of the supernatant are removed from each sample for the determination of the concentration.
(§10) Determination of MAplasma in Undiluted or Diluted Plasma:
(§11) The total incubation volume and the added volume of Transil® depend on the expected free fraction. In general the total volume is 0.5-1 ml, and the Transil® volume is 10-100 μl. In cases where the free fractions are very low, the plasma of the species to be investigated is diluted, with isotonic buffer solution, pH 7.4, e.g. 10-400-fold, and the Transil® is then added. The subsequent procedure takes place as described above for the determination of the MAbuffer values. […]
(§12) The plasma of the species to be investigated is filtered through a semipermeable membrane. The substance concentration in the filtrate is measured and the free fraction fu is calculated therefrom. […] The substance concentration in the ultrafiltrate (Cu; unbound substance concentration) and in the plasma before centrifugation (C; total substance concentration) is measured. The free fraction is calculated by the formula: fu (%)=Cu/C*100.

[2] = Determination of the free fraction (fu) in plasma; format: in vitro ADME, rat; settings: rat, plasma, pH 7.4
Protocol: as §1, §2, §3, §4, §5, §6, §7, §8, §9, §10, §11, §12

[3] = tested on: Streptococcus pneumoniae G9a; format: cell-based; settings: G9a
Protocol: (§13) Determination of the Minimum Inhibitory Concentration (MIC):
(§14) The MIC is determined in the liquid dilution test in accordance with the NCCLS guidelines. Overnight cultures of Staphylococcus aureus 133, Enterococcus faecalis 27159, E. faecium 4147 and Streptococcus pneumoniae G9a are incubated with the described test substances in a 1:2 dilution series. The MIC determination is carried out with a cell count of 10^5 microbes per ml in Isosensitest medium (Difco, Irvine/USA), with the exception of S. pneumoniae which is tested in BHI broth (Difco, Irvine/USA) with 10% bovine serum with a cell count of 10^6 microbes per ml. The cultures are incubated at 37° C. for 18-24 hours, S. pneumoniae in the presence of 10% CO2.
(§15) The MIC is defined as the lowest concentration of each substance at which no visible bacterial growth occurs any longer. The MIC values are reported in μg/ml.

[4] = tested on: Staphylococcus aureus 133; format: cell-based; settings: 133
Protocol: as §13, §14, §15

E. faecalis ICB 27159 = format: cell-based, Enterococcus faecalis; settings: ICB 27159
Protocol: as §13, §14, §15

| Compound | fraction unbound at 30 min [1] | fraction unbound at 30 min, 200 ng/mL [2] | MIC S. pneumoniae G9a [3] [µg/mL] | MIC S. aureus 133 [4] [µg/mL] | MIC E. faecalis ICB 27159 (E. faecalis ICB 27159) [µg/mL] |
| --- | --- | --- | --- | --- | --- |
| CC[C@H](C)[C@@H]1NC(=O)[C@@H](CCCNC(=N)N)NC(=O)[C@H](CC(C)C)NC(=O)[C@H]([C@H](O)C(C)C)NC(=O)[C@@H](NC(=O)[C@H](CC(C)C)NC(=O)[C@H](N)CC(C)C)[C@@H](c2ccccc2)OC(=O)[C@H](CO)NC(=O)[C@H]([C@H](O)C(=O)NCc2ccccc2)NC(=O)CNC(=O)[C@H]([C@H](C)O)NC1=O [Example 6, N^4.10-Benzyl-D-leucyl-L-leucyl-[(3R)-3-hydroxy-L-phenylalanyl]-[(3R)-3-hydroxy-L-leucyl]-L-leucyl-D-arginyl-L-isoleucyl-L-allothreonylglycyl-[(3S)-3-hydroxy-L-asparaginyl]-L-serine C^1.11—O^3.3-lactone Bistrifluoroacetate] (H-[dL]L[Phe(3R-OH)][Leu(3R-OH)]L[dR]I[aThr]G[X7]S; ester 3-C) | 0.026 | 0.07 |  |  |  |
| CC[C@H](C)[C@@H]1NC(=O)[C@@H](CCCNC(=N)N)NC(=O)[C@H](CC(C)C)NC(=O)[C@H]([C@H](O)C(C)C)NC(=O)[C@@H](NC(=O)[C@H](CC(C)C)NC(=O)[C@H](N)CC(C)C)[C@@H](c2ccccc2)OC(=O)[C@H](CO)NC(=O)[C@H]([C@H](O)C(=O)NCCCN2CCOCC2)NC(=O)CNC(=O)[C@H]([C@H](C)O)NC1=O [Example 4, N^4.10-(3-Morpholin-4-yl-propyl)-D-leucyl-L-leucyl-[(3R)-3-hydroxy-L-phenylalanyl]-[(3R)-3-hydroxy-L-leucyl]-L-leucyl-D-arginyl-L-isoleucyl-L-allothreonylglycyl-[(3S)-3-hydroxy-L-asparaginyl]-L-serine C^1.11—O^3.3-lactone Tristrifluoroacetate] (H-[dL]L[Phe(3R-OH)][Leu(3R-OH)]L[dR]I[aThr]G[X8]S; ester 3-C) | 0.024 | 0.068 |  |  |  |
| CC[C@H](C)[C@@H]1NC(=O)[C@@H](CCCNC(=N)N)NC(=O)[C@H](CC(C)C)NC(=O)[C@H]([C@H](O)C(C)C)NC(=O)[C@@H](NC(=O)[C@H](CC(C)C)NC(=O)[C@H](N)CC(C)C)[C@@H](c2ccccc2)OC(=O)[C@H](CO)NC(=O)[C@H]([C@H](O)C(=O)NCCNC(=O)OCc2ccccc2)NC(=O)CNC(=O)[C@H]([C@H](C)O)NC1=O.O=C(O)C(F)(F)F.O=C(O)C(F)(F)F [Example 9, N^4.10-(2-{[(Benzyloxy)carbonyl]amino}ethyl)-D-leucyl-L-leucyl-[(3R)-3-hydroxy-L-phenylalanyl]-[(3R)-3-hydroxy-L-leucyl]-L-leucyl-D-arginyl-L-isoleucyl-L-allothreon-ylglycyl-[(3S)-3-hydroxy-L-asparaginyl]-L-serine C^1.11—O^3.3-lactone Bistrifluoroacetate] (H-[dL]L[Phe(3R-OH)][Leu(3R-OH)]L[dR]I[aThr]G[X3]([Ethylenediamine-Cbz])S; ester 3-C) |  |  | 2 | 0.5 | 16 |

The next lines start with the values.

| fraction unbound at 30 min [1] | fraction unbound at 30 min, 200 ng/mL [2] | MIC S. pneumoniae G9a [3] [µg/mL] | MIC S. aureus 133 [4] [µg/mL] | MIC E. faecalis ICB 27159 (E. faecalis ICB 27159) [µg/mL] | Compound |
| --- | --- | --- | --- | --- | --- |
|  |  | 2 | 0.5 | 8 | CC[C@H](C)[C@@H]1NC(=O)[C@@H](CCCNC(=N)N)NC(=O)[C@H](CC(C)C)NC(=O)[C@H]([C@H](O)C(C)C)NC(=O)[C@@H](NC(=O)[C@H](CC(C)C)NC(=O)[C@H](N)CC(C)C)[C@@H](c2ccccc2)OC(=O)[C@H](CO)NC(=O)[C@H]([C@H](O)C(=O)NCCN)NC(=O)CNC(=O)[C@H]([C@H](C)O)NC1=O.O=C(O)C(F)(F)F.O=C(O)C(F)(F)F.O=C(O)C(F)(F)F [Example 12, N^4.10-(2-Aminoethyl)-D-leucyl-L-leucyl-[(3R)-3-hydroxy-L-phenylalanyl]-[(3R)-3-hydroxy-L-leucyl]-L-leucyl-D-arginyl-L-isoleucyl-L-allothreonylglycyl-[(3S)-3-hydroxy-L-asparaginyl]-L-serine C^1.11—O^3.3-lactone Tristrifluoroacetate] (H-[dL]L[Phe(3R-OH)][Leu(3R-OH)]L[dR]I[aThr]G[X5]S; ester 3-C) |
|  |  | 2 | 0.5 | 16 | CC[C@H](C)[C@@H]1NC(=O)[C@@H](CCCNC(=N)N)NC(=O)[C@H](CC(C)C)NC(=O)[C@H]([C@H](O)C(C)C)NC(=O)[C@@H](NC(=O)[C@H](CC(C)C)NC(=O)[C@H](N)CC(C)C)[C@@H](c2ccccc2)OC(=O)[C@H](CO)NC(=O)[C@H]([C@H](O)C(=O)NCC(=O)OCc2ccccc2)NC(=O)CNC(=O)[C@H]([C@H](C)O)NC1=O.O=C(O)C(F)(F)F.O=C(O)C(F)(F)F [Example 8, N^4.10-(2-(Benzyloxy)-2-oxoethyl)-D-leucyl-L-leucyl-[(3R)-3-hydroxy-L-phenylalanyl]-[(3R)-3-hydroxy-L-leucyl]-L-leucyl-D-arginyl-L-isoleucyl-L-allothreonylglycyl-[(3S)-3-hydroxy-L-β-asparaginyl]-L-serine C^1.11—O^3.3-lactone Bistrifluoroacetate] (H-[dL]L[Phe(3R-OH)][Leu(3R-OH)]L[dR]I[aThr]G[X4]S; ester 3-C) |
|  |  | 1 | 0.25 | 2 | CC[C@H](C)[C@@H]1NC(=O)[C@@H](CCCNC(=N)N)NC(=O)[C@H](CC(C)C)NC(=O)[C@H]([C@H](O)C(C)C)NC(=O)[C@@H](NC(=O)[C@H](CC(C)C)NC(=O)[C@H](N)CC(C)C)[C@@H](c2ccccc2)OC(=O)[C@H](CO)NC(=O)[C@H]([C@H](O)C(=O)NCC(N)=O)NC(=O)CNC(=O)[C@H]([C@H](C)O)NC1=O.O=C(O)C(F)(F)F.O=C(O)C(F)(F)F [Example 10, N^4.10-(2-Amino-2-oxoethyl)-D-leucyl-L-leucyl-[(3R)-3-hydroxy-L-phenylalanyl]-[(3R)-3-hydroxy-L-leucyl]-L-leucyl-D-arginyl-L-isoleucyl-L-allothreonylglycyl-[(3S)-3-hydroxy-L-asparaginyl]-L-serine C^1.11—O^3.3-lactone Bistrifluoroacetate] (H-[dL]L[Phe(3R-OH)][Leu(3R-OH)]L[dR]I[aThr]G[X6]S; ester 3-C) |

— patent US20090105119A1, “ASPARAGINE-10-SUBSTITUTED NONADEPSIPEPTIDES” (priority 2006, published 2009)
